Reference: article PMC3475094, “Identification Of Small Molecule TRABID Deubiquitinase Inhibitors By Computation-Based Virtual Screen” (BMC Chemical Biology, 2012)

Target: T1, TRABID (Homo sapiens, UniProt Q9UGI0)
T1 construct: gene ZRANB1; full length TRABID
T1 sequence (Q9UGI0 1-708): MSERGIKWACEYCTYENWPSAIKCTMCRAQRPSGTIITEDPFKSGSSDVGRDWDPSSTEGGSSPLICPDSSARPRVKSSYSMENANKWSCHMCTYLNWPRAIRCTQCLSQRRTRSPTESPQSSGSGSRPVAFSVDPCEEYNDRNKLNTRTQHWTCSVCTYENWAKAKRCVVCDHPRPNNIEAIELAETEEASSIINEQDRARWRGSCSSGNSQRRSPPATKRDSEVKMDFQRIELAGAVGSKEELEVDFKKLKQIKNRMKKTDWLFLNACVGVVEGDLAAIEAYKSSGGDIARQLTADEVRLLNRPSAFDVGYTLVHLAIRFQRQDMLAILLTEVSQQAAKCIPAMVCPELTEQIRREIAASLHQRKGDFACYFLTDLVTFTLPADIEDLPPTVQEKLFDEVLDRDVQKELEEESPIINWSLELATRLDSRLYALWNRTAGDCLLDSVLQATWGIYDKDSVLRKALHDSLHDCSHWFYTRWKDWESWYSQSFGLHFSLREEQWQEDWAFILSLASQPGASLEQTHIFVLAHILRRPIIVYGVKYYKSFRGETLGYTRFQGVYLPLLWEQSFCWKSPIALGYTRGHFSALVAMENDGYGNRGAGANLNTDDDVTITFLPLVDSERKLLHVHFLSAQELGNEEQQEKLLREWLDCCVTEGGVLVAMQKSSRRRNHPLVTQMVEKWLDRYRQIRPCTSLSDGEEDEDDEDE
Experiment: Hexa-K63 ubiquitin cleavage assay, Western blot quantification
Format: biochemical

| SMILES | IC50 |
| --- | --- |
| Oc1cc(Br)c(O)cc1Br [compound 133363, NSC133363] | 7.17 µM |
| Cc1cc(O)c(Cl)cc1O [compound 29034, NSC29034] | 7.54 µM |
